According to PubChem BioAssay AID179 (DTP/NCI, 2004):
Active and inactive are the calls of the source.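 The calls were made as follows: active = compounds giving half or more protection of infected cells from virus-caused growth loss, again on retest; inactive = the rest.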

Tested on: CEM cells HIV-1 protection, formazan growth assay
Test: NCI AIDS Antiviral Assay
Details: for IC50: measured here: growth of uninfected CEM cells
Outline: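 Five concentrations of each compound were applied to infected and uninfected human CEM cells. Protection from HIV-1 was judged from growth measured with a soluble formazan assay.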

Compound | EC50 | IC50 | outcome
CC(=O)OCC1OC(OC(C)=O)C(NC#N)C(OC(C)=O)C1OC(C)=O (stereo unspecified) | > 676 µM | 61.7 µM | 
O=C1OC[C@@H]2[C@@H](O)CCCCCN12 | > 200 µM | > 200 µM | 
CC(C)(C)[Si](C)(C)OCC1OC(n2ccc(=O)[nH]c2=O)C(O[Si](C)(C)C(C)(C)C)[C@@]12N[C@H](C(N)=O)CS2=O (stereo partly specified) | > 200 µM | 12.3 µM | 
CC1(C)CC(=O)c2c(-c3ccc(Cl)cc3)c(C#N)c(=S)n(C3OC(CO)C(O)C(O)C3O)c2C1 (stereo unspecified) | > 200 µM | 31.6 µM | 
CCCCCCCCCC(=O)OCC1OC(n2cc(F)c(=O)[nH]c2=O)C(N)C(OC(=O)CCCCCCCCC)C1O (stereo unspecified) | > 31.6 µM | > 31.6 µM | 
CCOc1ccc(Nc2nc(C)c(C(=O)CC(=O)C(=O)Nc3ccc(Cl)c(C(F)(F)F)c3)s2)cc1 | > 200 µM | > 200 µM | 
CC(=O)O[C@H]1CC[C@@]2(C)C(=C[C@H](c3ccc(O)cc3)[C@H]3[C@@H]4CC[C@H](OC(C)=O)[C@@]4(C)CC[C@@H]32)C1 | > 200 µM | 22.9 µM | 
Cc1cc2c(C(C)C)c(O)c(O)c(C=Nc3cccc(Cl)c3)c2c(O)c1-c1c(C)cc2c(C(C)C)c(O)c(O)c(C=Nc3cccc(Cl)c3)c2c1O |  |  | inactive
C=C1CCC/C(=N/NC(N)=O)C12CC2 | > 200 µM | > 200 µM | 
CCCCNC(=O)CNC(=O)c1ccccc1SC(=O)CCCC[n+]1ccccc1 | > 200 µM | 9.33 µM | 
CCCCC=C(c1cc(Cl)c(OC)c(C(=O)OC)c1)c1cc(Cl)c(OC)c(C(=O)OC)c1 | > 5.62 µM | > 5.62 µM | 
COC(=O)N1[C@@H]2C=CC=CC=C2[C@@H](OC)N1C(=O)OC | > 158 µM | 89.1 µM | 
O=c1oc2ccccc2cc1-c1ccccc1 | > 162 µM | > 162 µM | 
Cc1cc2c3c(nc2c2cc[nH]c(C)c12)CCCC3 | > 200 µM | 3.63 µM | 
Cc1ccc(N(C=O)c2c([N+](=O)[O-])cc([N+](=O)[O-])c3c2=[N+]([O-])CN=3)cc1 | > 7.59 µM | > 7.59 µM | 
NC(N)=N/N=C/c1c(-c2ccc(Cl)cc2)nc2sccn12 | > 200 µM | 3.39 µM | 
Nc1ccccc1/C=C/c1ccnc2ccccc12 | 0.0631 µM | 40.7 µM | 

Compound | EC50 | IC50 | outcome
O=C(Nn1c(-c2ccccc2)nc2ccccc2c1=O)c1ccccn1 | > 200 µM | 123 µM | 
Cc1ccc(S(=O)(=O)NN=C2C(C)CC(C(C)(C)C)CC2C)cc1 (stereo unspecified) | > 200 µM | 31.6 µM | 
O=C1Cc2c(-c3ccc(Cl)cc3)cc(-c3ccccc3)nc2-c2ccccc2N1 | > 100 µM | 28.8 µM | 
O=C1[C@H](O)[C@@H]2CCC[C@@]23CCCN13 | > 200 µM | > 200 µM | 
CN1C(=O)NC2ON=C(c3ccccc3)C2C1=O (stereo unspecified) | > 200 µM | 53.7 µM | 
O=C1CCC[C@]2(C1)Cc1ccccc1N2 | > 468 µM | 288 µM | 
COC(=O)C1=C(C(=O)OC)C2CCC1CC2=O (stereo unspecified) | > 200 µM | 44.7 µM | 
CC1(C)Cc2cc(C(=O)O)c3c(c2C1=O)COCC3 |  |  | inactive
CCOC(=O)CC[C@H](NC(=O)N[C@H](C)c1ccccc1)C(=O)OCC | > 200 µM | 39.8 µM | 
Cc1cc(-c2ccc(C(=O)C(c3ccccc3)(c3ccccc3)c3ccccc3)[nH]2)on1 | > 200 µM | 18.6 µM | 
COC(=O)C1Cc2c(OC)ccc(OC)c2C(O)C1C(=O)OC (stereo unspecified) | > 200 µM | > 200 µM | 
COc1ccccc1N=Nc1c(-c2ccccc2)nn(C(=O)CC(=O)Nc2cccc(C)c2)c1-c1ccccc1 | > 35.5 µM | 20.9 µM | 
CCOP(=O)(OCC)OC1CC(n2cc(C)c(=O)n(C)c2=O)OC1CO[Si](C)(C)C(C)(C)C (stereo unspecified) | > 200 µM | 107 µM | 
CC(C)=CC1(C)/C(=N\O)C(C)(CC(C)C)C(=O)N1O (stereo unspecified) | > 933 µM | > 933 µM | 
O=c1ccn(Cc2ccccc2)c(=S)[nH]1 | > 200 µM | > 200 µM | 
CC1C(Cl)(Cl)C1(C)/C=C/C1C(C)(C)C1(Cl)Cl (stereo unspecified) | > 200 µM | 91.2 µM | 
NC1=NC2(O)c3ccccc3C(=O)C2(O)N1 (stereo unspecified) | > 45.7 µM | 28.8 µM | 
